# From PubChem BioAssay AID330 (DTP/NCI, 2004)
# Values joined by “and” are separate entries in the source; they are usually repeats but may differ in a detail not shown here. Equal values may be shown once. Inconclusive results and toxic doses are left out.
# Test system: P388 leukemia ip, CD2F1 mice, survival T/C
# Experiment: NCI In Vivo Anticancer Drug Screen. Data for tumor model P388 Leukemia (intraperitoneal) in CD2F1 (CDF1) mice
# Conditions: endpoint: median survival time, higher = longer survival
# Method in brief: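 Mice carrying the transplanted tumor received test compound or vehicle. Survival was recorded in each group, and the value is the treated-group measurement divided by that of the vehicle-treated control group.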
# [1] = dose: 60.0 mg/kg/injection, schedule: Q01DX005 (ip), vehicle: saline with Tween-80
# [2] = dose: 120.0 mg/kg/injection, schedule: Q01DX005 (ip), vehicle: saline with Tween-80
# [3] = dose: 50.0 mg/kg/injection, schedule: Q01DX005 (ip), vehicle: saline
# [4] = dose: 12.5 mg/kg/injection, schedule: Q01DX005 (ip), vehicle: saline
# [5] = dose: 50.0 mg/kg/injection, schedule: Q01DX009 (ip), vehicle: suspension in saline
# [6] = dose: 100.0 mg/kg/injection, schedule: Q01DX009 (ip), vehicle: suspension in saline
# [7] = dose: 200.0 mg/kg/injection, schedule: Q01DX009 (ip), vehicle: suspension in saline
# [8] = dose: 50.0 mg/kg/injection, schedule: Q01DX005 (ip), vehicle: saline with Tween-80
# [9] = dose: 100.0 mg/kg/injection, schedule: Q01DX005 (ip), vehicle: saline with Tween-80
# [10] = dose: 200.0 mg/kg/injection, schedule: Q01DX005 (ip), vehicle: saline with Tween-80
smiles,measurement,setting,value
C=CCCC(=O)CCCC(=O)O[C@@H]1[C@@H]2[C@H](CC1(C)C)[C@H](O)[C@@]13O[C@@H]1[C@H](O)[C@@]1(CO1)[C@@]23C,T/C,"dose: 6.2 micrograms/kg/injection, schedule: Q01DX009 (ip), vehicle: saline + alcohol",98 % of control
same,T/C,"dose: 6.3 micrograms/kg/injection, schedule: Q01DX009 (ip), vehicle: Klucel (hydroxypropylcellulose) (HPC)",110 % of control
same,T/C,"dose: 12.5 micrograms/kg/injection, schedule: Q01DX009 (ip), vehicle: Klucel (hydroxypropylcellulose) (HPC)",110 % of control
same,T/C,"dose: 12.5 micrograms/kg/injection, schedule: Q01DX009 (ip), vehicle: saline + alcohol",101 % of control
same,T/C,"dose: 25.0 micrograms/kg/injection, schedule: Q01DX005 (ip), vehicle: Klucel (hydroxypropylcellulose) (HPC)",100 % of control
same,T/C,"dose: 25.0 micrograms/kg/injection, schedule: Q01DX009 (ip), vehicle: Klucel (hydroxypropylcellulose) (HPC)",100 % of control
same,T/C,"dose: 25.0 micrograms/kg/injection, schedule: Q01DX009 (ip), vehicle: saline + alcohol",98 % of control
same,T/C,"dose: 50.0 micrograms/kg/injection, schedule: Q01DX005 (ip), vehicle: Klucel (hydroxypropylcellulose) (HPC)",101 % of control
same,T/C,"dose: 50.0 micrograms/kg/injection, schedule: Q01DX009 (ip), vehicle: Klucel (hydroxypropylcellulose) (HPC)",98 % of control
same,T/C,"dose: 50.0 micrograms/kg/injection, schedule: Q01DX009 (ip), vehicle: saline + alcohol",97 % of control
same,T/C,"dose: 100.0 micrograms/kg/injection, schedule: Q01DX005 (ip), vehicle: Klucel (hydroxypropylcellulose) (HPC)",99 % of control
same,T/C,"dose: 200.0 micrograms/kg/injection, schedule: Q01DX005 (ip), vehicle: Klucel (hydroxypropylcellulose) (HPC)",100 % of control
same,T/C,"dose: 400.0 micrograms/kg/injection, schedule: Q01DX005 (ip), vehicle: Klucel (hydroxypropylcellulose) (HPC)",111 % of control
CC(=O)OC(OC(C)=O)c1ccc([N+](=O)[O-])c([N+](=O)[O-])c1,T/C,"dose: 12.5 mg/kg/injection, schedule: Q01DX010 (ip), vehicle: saline",104 % of control
same,T/C,"dose: 25.0 mg/kg/injection, schedule: Q01DX010 (ip), vehicle: saline",109 % of control
same,T/C,"dose: 50.0 mg/kg/injection, schedule: Q01DX010 (ip), vehicle: saline",100 % of control
Cc1ccc2c(c1)sc1nnc(C)n12,T/C,"dose: 50.0 mg/kg/injection, schedule: Q01DX009 (ip), vehicle: Klucel (hydroxypropylcellulose) (HPC)",114 % of control
same,T/C,"dose: 100.0 mg/kg/injection, schedule: Q01DX009 (ip), vehicle: Klucel (hydroxypropylcellulose) (HPC)",97 % of control
N#Cc1ccc(NN=O)cc1,T/C,"dose: 3.12 mg/kg/injection, schedule: Q01DX009 (ip), vehicle: water",100 % of control
same,T/C,"dose: 6.25 mg/kg/injection, schedule: Q01DX009 (ip), vehicle: water",105 % of control
same,T/C,"dose: 12.5 mg/kg/injection, schedule: Q01DX009 (ip), vehicle: water",105 % of control
same,T/C,"dose: 25.0 mg/kg/injection, schedule: Q01DX009 (ip), vehicle: water",117 % of control
same,T/C,"dose: 100.0 mg/kg/injection, schedule: Q01DX009 (ip), vehicle: water",117 % of control
CSc1nc(C)c(C(=O)CCN2CCOCC2)s1,T/C,"dose: 60.0 mg/kg/injection, schedule: Q01DX005 (ip), vehicle: saline",117 % of control
same,T/C,"dose: 120.0 mg/kg/injection, schedule: Q01DX005 (ip), vehicle: saline",105 % of control
COc1ccc2ccc3cccnc3c2n1,T/C,[1],93 % of control
same,T/C,[2],99 % of control
same,T/C,"dose: 240.0 mg/kg/injection, schedule: Q01DX005 (ip), vehicle: saline with Tween-80",105 % of control
CS(=O)CC(=O)c1ccccn1 (stereo not drawn),T/C,[3],106 % of control
same,T/C,"dose: 100.0 mg/kg/injection, schedule: Q01DX005 (ip), vehicle: saline",100 % of control
same,T/C,"dose: 200.0 mg/kg/injection, schedule: Q01DX005 (ip), vehicle: saline",99 % of control
CCN(CC)CCSc1c2ccc(Cl)cc2nc2ccc(OC)cc12,T/C,[4],106 % of control
same,T/C,"dose: 25.0 mg/kg/injection, schedule: Q01DX005 (ip), vehicle: saline",106 % of control
same,T/C,[3],105 % of control and 106 % of control
C[N+]1(C)CCC(Cc2ccccc2)CC1,T/C,"dose: 6.25 mg/kg/injection, schedule: Q01DX005 (ip), vehicle: saline",101 % of control
same,T/C,[4],92 % of control
O=C(OCC(Cl)(Cl)Cl)N1C2C=CC(C3OC32)N1C(=O)OCC(Cl)(Cl)Cl (stereo not drawn),T/C,[5],88 % of control
same,T/C,[6],90 % of control
same,T/C,[7],98 % of control
CNC(=S)c1cccc(-c2ccccn2)n1,T/C,"dose: 12.5 mg/kg/injection, schedule: Q04DX003 (ip), vehicle: Klucel (hydroxypropylcellulose) (HPC)",104 % of control
same,T/C,"dose: 25.0 mg/kg/injection, schedule: Q04DX003 (ip), vehicle: Klucel (hydroxypropylcellulose) (HPC)",113 % of control
same,T/C,"dose: 50.0 mg/kg/injection, schedule: Q04DX003 (ip), vehicle: Klucel (hydroxypropylcellulose) (HPC)",108 % of control and 91 % of control
CC(=O)C1=C(O)C2(C)c3c(O)c(C)c(O)c(C(C)=O)c3OC2CC1=O (stereo not drawn),T/C,"dose: 6.25 mg/kg/injection, schedule: Q01DX009 (ip), vehicle: gum acacia",100 % of control and 106 % of control
same,T/C,"dose: 12.5 mg/kg/injection, schedule: Q01DX009 (ip), vehicle: gum acacia",103 % of control and 108 % of control
same,T/C,"dose: 25.0 mg/kg/injection, schedule: Q01DX009 (ip), vehicle: gum acacia",108 % of control and 110 % of control
same,T/C,"dose: 50.0 mg/kg/injection, schedule: Q01DX009 (ip), vehicle: gum acacia",108 % of control and 110 % of control
CC(=O)Oc1cccc2c1CC(C[Se]c1ccccc1)C(=O)O2 (stereo not drawn),T/C,[8],94 % of control
same,T/C,[9],89 % of control
CSc1ccc(N2C(=O)CSC2=O)cc1,T/C,"dose: 50.0 mg/kg/injection, schedule: Q01DX009 (ip), vehicle: saline with Tween-80",106 % of control
same,T/C,"dose: 100.0 mg/kg/injection, schedule: Q01DX009 (ip), vehicle: saline with Tween-80",114 % of control
same,T/C,"dose: 200.0 mg/kg/injection, schedule: Q01DX009 (ip), vehicle: saline with Tween-80",109 % of control
CCCCCCCCCCCCNC(=O)[C@@]1(O)[C@H](O)C2(CC)C=CCN3CCC4(c5cc([C@@]6(C(=O)OC)CC7CN(CCc8c6[nH]c6ccccc86)C[C@](O)(CC)C7)c(OC)cc5N(C)[C@H]41)C32 (stereo partly drawn),T/C,"dose: 18.0 mg/kg/injection, schedule: Q01DX005 (ip), vehicle: other",157 % of control
same,T/C,"dose: 30.0 mg/kg/injection, schedule: Q01DX005 (ip), vehicle: other",182 % of control
same,T/C,"dose: 30.0 mg/kg/injection, schedule: Q01DX005 (ip), vehicle: saline",160 % of control
same,T/C,"dose: 50.0 mg/kg/injection, schedule: Q01DX005 (ip), vehicle: other",230 % of control
same,T/C,[3],177 % of control
O=C(OCC1OC(C2N(c3ccccc3)CCN2c2ccccc2)C(OC(=O)c2ccccc2)C1OC(=O)c1ccccc1)c1ccccc1 (stereo not drawn),T/C,"dose: 12.5 mg/kg/injection, schedule: Q01DX009 (ip), vehicle: distilled water + Tween-80",102 % of control
same,T/C,"dose: 25.0 mg/kg/injection, schedule: Q01DX009 (ip), vehicle: distilled water + Tween-80",102 % of control
same,T/C,"dose: 50.0 mg/kg/injection, schedule: Q01DX009 (ip), vehicle: distilled water + Tween-80",94 % of control
same,T/C,"dose: 100.0 mg/kg/injection, schedule: Q01DX009 (ip), vehicle: distilled water + Tween-80",102 % of control
same,T/C,"dose: 200.0 mg/kg/injection, schedule: Q01DX009 (ip), vehicle: distilled water + Tween-80",93 % of control
O=C1CSC(c2cccc(F)c2)N1CCN1C(=O)CSC1c1cccc(F)c1 (stereo not drawn),T/C,[8],95 % of control
same,T/C,[9],98 % of control
same,T/C,[10],106 % of control
O=C(/C=C/c1ccccc1OCc1cc2ccccc2nc1Cl)c1ccccc1,T/C,"dose: 100.0 mg/kg/injection, schedule: Q01DX001 (ip), vehicle: saline with Tween-80",87 % of control
same,T/C,"dose: 200.0 mg/kg/injection, schedule: Q01DX001 (ip), vehicle: saline with Tween-80",90 % of control
same,T/C,"dose: 400.0 mg/kg/injection, schedule: Q01DX001 (ip), vehicle: saline with Tween-80",90 % of control
COc1nc(Nc2ccccc2SC)nc(OC)n1,T/C,[8],104 % of control
same,T/C,[9],106 % of control
same,T/C,[10],107 % of control
N/C(=N\OC1(c2ccccc2)OC(=O)C(=O)/C1=C(/O)c1ccccc1)c1ccccc1 (stereo not drawn),T/C,[1],102 % of control
same,T/C,[2],100 % of control
CCCC1C(=O)N2C(N(C)C)=Nc3ccc(C)cc3N2C1=O (stereo not drawn),T/C,[5],101 % of control
same,T/C,[6],104 % of control
same,T/C,[7],106 % of control
same,T/C,"dose: 400.0 mg/kg/injection, schedule: Q01DX009 (ip), vehicle: suspension in saline",97 % of control
COC(=O)c1ccccc1N1C(=O)C=CC1=O,T/C,"dose: 6.25 mg/kg/injection, schedule: Q04DX003 (ip), vehicle: saline with Tween-80",92 % of control
same,T/C,"dose: 12.5 mg/kg/injection, schedule: Q04DX003 (ip), vehicle: saline with Tween-80",92 % of control
